In US9034865B2, “Pyrido [4,3-B] indole and pyrido [3,4-B] indole derivatives and methods of use” (Medivation Technologies, Inc., priority 2010, dated 2015):

How the values were obtained:
[1] = target: T1, human recombinant dopamine D2L receptor (Homo sapiens, UniProt P14416); test: Dopamine D2L radioligand binding ([3H]Spiperone); conditions: compound at 1 μM; read-out: Percentage inhibition of ligand binding, Dopamine (1 μM) D2L
T1 construct: expressed in transfected cells; host or cells: CHO
Method: To evaluate in radioligand binding assays the activity of compounds of the invention, human recombinant dopamine D2L receptor expressed in Chinese hamster ovary (CHO) cells (Grandy, D. et al, Proc. Natl. Acad. Sci. USA. 86:9762, 1989; Hayes, G. et al, Mol. Endocrinol. 6:920, 1992) in a modified Tris-HCl buffer (50 mM Tris-HCl, pH 7.4, 1.4 mM Ascorbic Acid, 0.001% BSA, 150 mM NaCl) was used. Compounds of the invention were incubated with 0.16 nM [^3H]Spiperonefor 120 min at 25° C. Non-specific binding was estimated in the presence of 10 μM Haloperidol. Receptor proteins were filtered and washed, the filters were then counted to determine [^3H]Spiperone specifically bound. Compounds were screened at 1 μM or lower, using 1% DMSO as vehicle. Biochemical assay results are presented as the percent inhibition of specific binding in Table 3.

[2] = target: T2, human recombinant serotonin (5-Hydroxytryptamine) 5-HT6 receptor (Homo sapiens, UniProt P50406); test: Serotonin 5-HT6 radioligand binding ([3H]LSD); conditions: compound at 0.1 μM; read-out: Percentage inhibition of ligand binding, Serotonin (0.1 μM) 5-HT6
T2 construct: expressed in transfected cells; host or cells: HeLa
Method: To evaluate in radioligand binding assays the activity of compounds of the invention, human recombinant serotonin (5-Hydroxytryptamine) 5-HT6 receptor expressed in human HeLa cells (Monsma, F. Jr. et al, Mol. Pharmacol. 43:320, 1993) in a modified Tris-HCl buffer (50 mM Tris-HCl, pH 7.4, 150 mM NaCl, 2 mM Ascorbic Acid, 0.001% BSA) was used. Compounds of the invention were incubated with 1.5 nM [3H]Lysergic acid diethylamide (LSD) for 120 min at 37° C. Non-specific binding was estimated in the presence of 5 μM Serotonin (5-HT). Receptor proteins were filtered and washed, the filters were then counted to determine [3H]LSD specifically bound. Compounds were screened at 1 μM or lower, using 1% DMSO as vehicle. Biochemical assay results are presented as the percent inhibition of specific binding in Table 4.

[3] = target: T3, human recombinant serotonin (5-Hydroxytryptamine) 5-HT5A receptor (Homo sapiens, UniProt P47898); test: Serotonin 5-HT5A radioligand binding ([3H]LSD); conditions: compound at 0.1 μM; read-out: Percentage inhibition of ligand binding, Serotonin (0.1 μM) 5-HT5A
T3 construct: expressed in transfected cells; host or cells: CHO-K1
Method: To evaluate in radioligand binding assays the activity of compounds of the invention, human recombinant serotonin (5-Hydroxytryptamine) 5-HT5A receptor expressed in Chinese hamster ovary (CHO) K1 cells (Rees, S. et al, FEBS Lett. 355:242, 1994) in a modified Tris-HCl buffer (50 mM Tris-HCl, pH 7.4, 10 mM MgCl2, 0.5 mM EDTA) was used. Compounds of the invention were incubated with 1.7 nM [^3H]Lysergic acid diethylamide (LSD) for 60 min at 37° C. Non-specific binding was estimated in the presence of 100 μM Serotonin (5-HT). Receptor proteins were filtered and washed, the filters were counted to determine [^3H]LSD specifically bound. Compounds were screened at 1 μM or lower, using 1% DMSO as vehicle. Biochemical assay results are presented as the percent inhibition of specific binding in Table 4.

[4] = target: T4, human recombinant serotonin (5-Hydroxytryptamine) 5-HT7 receptor (Homo sapiens, UniProt P34969); test: Serotonin 5-HT7 radioligand binding ([3H]LSD); conditions: compound at 0.1 μM; read-out: Percentage inhibition of ligand binding, Serotonin (0.1 μM) 5-HT7
T4 construct: expressed in transfected cells; host or cells: CHO
Method: To evaluate in radioligand binding assays the activity of compounds of the invention, human recombinant serotonin (5-Hydroxytryptamine) 5-HT7 receptor expressed in Chinese hamster ovary (CHO) cells (Roth, B. et al, J. Pharmacol. Exp. Ther. 268:1403, 1994; Shen, Y. et al, J. Biol. Chem. 268:18200, 1993) in a modified Tris-HCl buffer (50 mM Tris-HCl, pH 7.4, 10 mM MgCl2, 0.5 mM EDTA) was used. Compounds of invention were incubated with 5.5 nM [^3H] Lysergic acid diethylamide (LSD) for 2 h at 25° C. Non-specific binding was estimated in the presence of 10 μM Serotonin (5-HT). Receptor proteins were filtered and washed, the filters were then counted to determine [^3H]LSD specifically bound. Compounds were screened at 1 μM or lower, using 1% DMSO as vehicle. Biochemical assay results are presented as the percent inhibition of specific binding in Table 4.

[5] = target: T5, human recombinant serotonin (5-Hydroxytryptamine) 5-HT2A receptor (Homo sapiens, UniProt P28223); test: Serotonin 5-HT2A radioligand binding ([3H]Ketanserin); conditions: compound at 0.1 μM; read-out: Percentage inhibition of ligand binding, Serotonin (0.1 μM) 5-HT2A
T5 construct: expressed in transfected cells; host or cells: CHO-K1
Method: To evaluate in radioligand binding assays the activity of compounds of the invention, human recombinant serotonin (5-Hydroxytryptamine) 5-HT2A receptor expressed in Chinese hamster ovary (CHO) K1 cells (Bonhaus, D. et al, Br. J. Pharmacol. 115:622, 1995; Saucier, C. et al, J. Neurochem. 68:1998, 1997) in a 50 mM Tris-HCl buffer, pH 7.4, was used. Compounds of the invention were incubated with 0.5 nM [^3H]Ketanserin for 60 min at 25° C. Non-specific binding was estimated in the presence of 1 μM Mianserin. Receptor proteins were filtered and washed, the filters were then counted to determine [^3H]Ketanserin specifically bound. Compounds were screened at 1 μM or lower, using 1% DMSO as vehicle. Biochemical assay results are presented as the percent inhibition of specific binding in Table 4.

T5 sequence (P28223 whole entry): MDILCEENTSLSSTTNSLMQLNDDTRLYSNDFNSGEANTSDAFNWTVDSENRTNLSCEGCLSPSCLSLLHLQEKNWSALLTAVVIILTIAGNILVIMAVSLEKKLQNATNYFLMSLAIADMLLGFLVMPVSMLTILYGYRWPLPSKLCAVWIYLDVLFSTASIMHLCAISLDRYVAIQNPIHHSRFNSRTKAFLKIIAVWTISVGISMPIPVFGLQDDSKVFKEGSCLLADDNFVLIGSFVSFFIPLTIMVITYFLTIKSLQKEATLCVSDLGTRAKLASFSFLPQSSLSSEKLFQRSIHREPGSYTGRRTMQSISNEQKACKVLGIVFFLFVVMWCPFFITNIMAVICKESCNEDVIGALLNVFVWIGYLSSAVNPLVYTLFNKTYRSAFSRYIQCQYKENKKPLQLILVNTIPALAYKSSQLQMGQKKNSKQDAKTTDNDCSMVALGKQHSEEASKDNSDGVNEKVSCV
T4 sequence (P34969 whole entry): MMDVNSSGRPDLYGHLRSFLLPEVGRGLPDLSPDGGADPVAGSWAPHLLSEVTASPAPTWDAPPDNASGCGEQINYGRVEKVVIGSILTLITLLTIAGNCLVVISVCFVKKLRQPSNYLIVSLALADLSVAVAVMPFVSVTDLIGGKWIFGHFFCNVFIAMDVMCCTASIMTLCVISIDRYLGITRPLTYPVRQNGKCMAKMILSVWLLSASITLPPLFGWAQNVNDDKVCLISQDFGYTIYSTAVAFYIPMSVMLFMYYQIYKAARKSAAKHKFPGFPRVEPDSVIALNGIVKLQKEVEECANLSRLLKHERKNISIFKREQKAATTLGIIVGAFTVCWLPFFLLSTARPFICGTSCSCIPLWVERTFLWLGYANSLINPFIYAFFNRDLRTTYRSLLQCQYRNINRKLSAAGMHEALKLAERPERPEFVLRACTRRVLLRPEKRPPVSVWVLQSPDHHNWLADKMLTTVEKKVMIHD
T1 sequence (P14416 whole entry): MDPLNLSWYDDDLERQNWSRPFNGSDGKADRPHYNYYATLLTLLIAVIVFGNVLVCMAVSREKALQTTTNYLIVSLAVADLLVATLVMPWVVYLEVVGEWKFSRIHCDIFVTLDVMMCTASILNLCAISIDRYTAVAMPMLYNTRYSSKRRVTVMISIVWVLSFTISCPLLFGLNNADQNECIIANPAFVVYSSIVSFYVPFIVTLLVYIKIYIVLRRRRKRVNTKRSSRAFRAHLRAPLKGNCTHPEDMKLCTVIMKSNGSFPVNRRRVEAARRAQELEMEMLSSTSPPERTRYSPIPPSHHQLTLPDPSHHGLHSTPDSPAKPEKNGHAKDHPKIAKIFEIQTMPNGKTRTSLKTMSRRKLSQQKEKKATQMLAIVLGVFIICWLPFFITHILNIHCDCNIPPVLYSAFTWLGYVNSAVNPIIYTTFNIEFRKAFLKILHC
T3 sequence (P47898 whole entry): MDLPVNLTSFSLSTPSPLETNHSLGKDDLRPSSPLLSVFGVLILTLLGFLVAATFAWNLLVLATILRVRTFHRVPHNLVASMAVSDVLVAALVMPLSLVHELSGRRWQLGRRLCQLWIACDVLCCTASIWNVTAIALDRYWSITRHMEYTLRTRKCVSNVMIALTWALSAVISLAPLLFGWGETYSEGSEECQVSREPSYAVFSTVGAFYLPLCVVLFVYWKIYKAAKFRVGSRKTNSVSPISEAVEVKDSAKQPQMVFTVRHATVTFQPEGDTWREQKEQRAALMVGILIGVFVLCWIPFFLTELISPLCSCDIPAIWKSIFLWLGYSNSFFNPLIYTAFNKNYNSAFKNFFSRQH
T2 sequence (P50406 whole entry): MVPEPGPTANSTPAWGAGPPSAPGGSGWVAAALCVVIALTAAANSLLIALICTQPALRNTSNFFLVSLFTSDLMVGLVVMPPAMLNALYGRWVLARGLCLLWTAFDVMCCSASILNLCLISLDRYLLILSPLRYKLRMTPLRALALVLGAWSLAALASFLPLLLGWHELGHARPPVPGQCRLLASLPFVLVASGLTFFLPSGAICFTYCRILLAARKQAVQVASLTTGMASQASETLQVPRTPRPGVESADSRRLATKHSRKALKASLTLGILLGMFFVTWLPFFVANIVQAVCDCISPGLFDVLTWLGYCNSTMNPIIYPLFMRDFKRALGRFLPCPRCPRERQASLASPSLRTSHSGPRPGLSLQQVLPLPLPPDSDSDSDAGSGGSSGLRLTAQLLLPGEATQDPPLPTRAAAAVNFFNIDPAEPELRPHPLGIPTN

| SMILES | inhibition at 1 µM [1] | inhibition at 0.1 µM [2] | inhibition at 0.1 µM [3] | inhibition at 0.1 µM [4] | inhibition at 0.1 µM [5] |
| --- | --- | --- | --- | --- | --- |
| Cc1cc(C#Cc2ccc(C)nc2)c2c(c1)c1c(n2C)CCN(C)C1 [Compound 12, 2,3,4,5-tetrahydro-2,5,8-trimethyl-6-(2-(6-methylpyridin-3-yl)ethynyl)-1H-pyrido[4,3-b]indole] | 14% | -3% | -21% | 5% | 23% |
| Cc1cc(CCc2ccc(C)nc2)c2c(c1)c1c(n2C)CCN(C)C1 [Compound 13] | 15% | 2% | 15% | 16% | 13% |
| C#Cc1cc(C)cc2c3c(n(C)c12)CCN(C)C3 [Compound 10, 6-Ethynyl-2,3,4,5-tetrahydro-2,5,8-trimethyl-1H-pyrido[4,3-b]indole] | 70% | 18% | 1% | 14% | 37% |
| Cc1cc(-c2ccc(F)cc2)c2c(c1)c1c(n2C)CCN(C)C1 [Compound 7] | 5% | 10% | -4% | 12% | 6% |
| Cc1ccc(C#Cc2cc(Cl)cc3c4c(n(C)c23)CCN(C)C4)cn1 [Compound 18] | 7% | 6% | 17% | 8% | 80% |
| Cc1cc(C#Cc2ccncc2)c2c(c1)c1c(n2C)CCN(C)C1 [Compound 17] | 1% | 5% | 15% | 23% | 24% |
| C/C(=C\c1cc(C)cc2c3c(n(C)c12)CCN(C)C3)c1ccc(C)nc1 [Compound 15] | 3% | 11% | 11% | 36% | 1% |
| Cc1cc(/C=C/c2ccc(C)nc2)c2c(c1)c1c(n2C)CCN(C)C1 [Compound 14] | 14% | 10% | -7% | 13% | -7% |
| Cc1cc(C#Cc2cccs2)c2[nH]c3c(c2c1)CN(C)CC3 [Compound 8] | -1% | 15% | -14% | 6% | 27% |
| Cc1cc(C#Cc2nccs2)c2[nH]c3c(c2c1)CN(C)CC3 [Compound 16] | -1% | 14% | -2% | 35% | 21% |
| Cc1cc(-c2ccncc2)c2c(c1)c1c(n2C)CCN(C)C1 [Compound 9] | 7% | -2% | 6% | 26% | 5% |
| C/C(=C\c1cc(C)cc2c3c(n(C)c12)CCN(C)C3)c1ccncc1 [Compound 11] | 28% | -6% | -19% | -17% | 13% |
